According to PMC11849073, “Specific recognition mechanism of an antibody to sulfated tyrosine and its potential use in biological research” (The Journal of Biological Chemistry, 2025):
Entries after “also recorded” stand apart in the source; their conditions may differ. Where no end group is shown, it is not given here. [ ]: non-standard residue; d: D form. sY = N[C@@H](Cc1ccc(OS(=O)(=O)O)cc1)C(=O)O

Key:
[1] = test system: YU2 (CCR5 tropic strain) strain in TZM-bl cells; test: Pseudoviral assay (single-round viral infective assay) in TZM-bl cells; type: cell-based, HIV; settings: 48 h post-infection, luciferase read-out, BA8 up to 50 μg/ml (approximately 350 nM)
Protocol: Subsequently, we conducted a pseudoviral test using TZM-bl cells.
The anti-HIV activity of BA8, isotype control antibody, and Maraviroc (Sigma-Aldrich) in a single-round viral infective assay against the YU2 (CCR5 tropic strain) strain in TZM-bl cells. At 48 h post-infection, cells were lysed, and relative light units were measured using a Steady-Glo luciferase assay system and GloMax Discover microplate reader (Promega).

[2] = test system: BA8 Fab; test: DSF stabilizing effect of peptides on BA8; design: species or system rabbit; settings: BA8 Fab before and after binding of peptide (solution after ITC)
Protocol: To assess the effect of sulfated peptide binding on the thermal stability of BA8, we performed differential scanning fluorimetry (DSF) measurements (Fig. 2C) ([25]). The melting temperature (Tm) of BA8 forming a complex with the sulfated peptide was 75.6 °C, whereas the pre-binding Tm was 70.8 °C.
The stabilization effect of the addition of these partially sulfated peptides on BA8 was evaluated using DSF measurements (Fig. S8).
The DSF thermal stability measurements were performed using a CFX Real-Time PCR System (Bio-Rad). First, 1 μl of 100 × SYPRO Orange stain was diluted with 19 μl of 8.3 μM unbound-BA8 Fab or the solution remaining in the cell after ITC measurement. Next, fluorescence was scanned every minute to obtain melting curves of the solutions as they were heated at 1.0 °C/min. The change in the scanned relative fluorescence unit per unit time was recorded, and the temperature at its peak was considered to be the melting temperature (Tm) ([42]).

[3] = test system: BA8 Fab; test: SPR analysis of sulfated, non-sulfated and partially sulfated CCR5 N-terminal peptides with BA8; type: binding, rabbit; settings: for binding of peptide to BA8 in SPR, in words / Kd / koff: BA8 Fab immobilized, SPR; for binding of peptide to BA8 in SPR, in words: peptides 2 to 162 nM as analyte (statements of b30 and b31 cover SPR and ITC); for kon: SPR Biacore 8K, BA8 Fab immobilized on CM5 chip, PBS 0.005% Tween 20, global fitting; for kon / Kd / koff: partially sulfated peptide as analyte
Excerpt: To quantitatively evaluate the intermolecular interaction between BA8 and the sulfated N-terminal peptide of CCR5, we prepared a Fab fragment of BA8 as a recombinant protein (Fig. S2, A and B) and conducted kinetic interaction analysis using SPR. The Fab was immobilized on a sensor chip using amine coupling, and the synthesized sulfated and non-sulfated N-terminal peptides of CCR5 were used as the analytes.
(§1) We prepared these partially sulfated peptides and analyzed their interactions with BA8 using SPR and ITC (Fig. 4, B and C, Tables 3 and 4). […] These findings indicate that sulfation at 7Tys is essential for BA8 recognition. […] Thus, the high specificity and affinity of BA8 for the sulfated CCR5 N-terminal peptide likely rely heavily on the sulfation at 7Tys and 8Tys. […] In other words, BA8 recognizes not only sulfation of the N-terminal peptide of CCR5, but it is also selective about the sulfation site.
The bindings of the peptides to Fabs were analyzed using a Biacore 8K instrument (Cytiva). Each Fab was immobilized on the surface of a CM5 sensor chip (Cytiva) by the amine-coupling method according to the manufacturer’s instructions in the condition of pH 5.5. The immobilization level reached to about 3000 Response Unit (RU). PBS containing 0.005% Tween 20 was used as the running buffer. The kinetic data were obtained by injection of increasing concentrations of peptides into the sensor chip. The flow rate of the analyte were set to 30 μl/min. The data were analyzed using BIAevaluation software (Cytiva), and the binding affinity as well as kinetic parameters were calculated by a global fitting of the curves.

[4] = test system: BA8 Fab; test: ITC analysis of sulfated, non-sulfated and partially sulfated CCR5 N-terminal peptides with BA8; type: binding, rabbit; settings: PBS; for Kd / ΔH: 10 μM BA8 Fab in cell, 100 μM peptide in syringe, 25 °C
Excerpt: To determine the thermodynamic parameters accompanying the interaction, we performed an ITC analysis (Fig. 2B, Table 2).
as §1
The ITC experiments were performed using a MicroCal PEAQ-ITC (Malvern Panalytical, Malvern, UK). The BA8 Fab fragment antibody, sufficiently dialyzed in PBS, was adjusted to 10 μM for the cells, and the CCR5 N-terminal peptide, dissolved in the dialysate, was adjusted to 100 μM for the syringe. The first injection of 0.5 μl (omitted from the analysis) was followed by 19 injections of 2 μl with 120 s intervals at a constant temperature of 25 °C. The titration syringe was continuously stirred at 750 rpm.
The baselines were smoothly adjusted for the step after each titration saturated and fitted as one set of sites binding in MicroCal PEAQ-ITC Analysis Software (Malvern Panalytical, Malvern, UK).

[5] = target: full-length CCR5-FLAG co-expressed with TPST1 and TPST2 in HEK293 cells (C12 cells), sulfated by TPST2 (UniProt P51681); test: flow cytometry on cells; transfected HEK293 cells (C, C1, C2, C12) or TZM-bl cells fixed with 2% paraformaldehyde; BA8 IgG detected with goat anti-rabbit IgG Alexa 488; median fluorescence against BA8 concentration fitted with a sigmoid function
Sequence of full-length CCR5-FLAG co-expressed with TPST1 and TPST2 in HEK293 cells (C12 cells), sulfated by TPST2 (P51681 whole entry): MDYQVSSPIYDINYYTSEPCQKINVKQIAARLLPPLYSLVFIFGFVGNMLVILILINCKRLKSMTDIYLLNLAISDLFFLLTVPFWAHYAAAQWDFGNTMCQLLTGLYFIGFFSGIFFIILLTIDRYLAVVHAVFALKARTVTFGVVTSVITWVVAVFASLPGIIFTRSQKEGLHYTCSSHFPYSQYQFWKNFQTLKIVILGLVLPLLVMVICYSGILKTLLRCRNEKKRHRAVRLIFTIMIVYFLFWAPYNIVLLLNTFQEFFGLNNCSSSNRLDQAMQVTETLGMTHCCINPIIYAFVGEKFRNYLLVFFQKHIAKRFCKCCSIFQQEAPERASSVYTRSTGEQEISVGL

[6] = target: full-length CCR5-FLAG co-expressed with TPST2 in HEK293 cells (C2 cells), sulfated by TPST2 (UniProt P51681); test: as above
Sequence of full-length CCR5-FLAG co-expressed with TPST2 in HEK293 cells (C2 cells), sulfated by TPST2 (P51681 whole entry): as above

[7] = target: endogenous CCR5 expressed on TZM-bl cells (human (endogenous in TZM-bl)) (UniProt P51681); test: as above
Sequence of endogenous CCR5 expressed on TZM-bl cells (human (endogenous in TZM-bl)) (P51681 whole entry): as above

With Maraviroc [reference compound] the “inhibition of HIV infection, in words” value [1] was “inhibited HIV infection; also recorded: concentration-dependent inhibition of viral infection”.

For “TYS3,8: partially sulfated CCR5 N-terminal peptide containing 3Tys and 8Tys (PI[sY]DINY[sY]TSE; UniProt P51681 8-18, looked up, fragment)”, the “effect of the peptide on the thermal stability (Tm) of BA8, in words” value (“effect of the peptide” below) [2] was “did not change the thermal stability of BA8 at all”, the “binding of peptide to BA8 in SPR, in words” value (shortened to “binding … in SPR, in words”) [3] was “did not exhibit binding” and the “binding … in SPR, in words” value ([3]; listed as TYS38) was “no binding”.

In the case of “sulfated peptide: CCR5 N-terminal peptide Pro8 to Ser18 with sulfated Tyr10, Tyr14, and Tyr15; fully sulfated (PI[sY]DIN[sY][sY]TSE; UniProt P51681 8-18, looked up, fragment)”, the “binding of peptide to BA8 in ITC, in words” value ([4]; 10 μM BA8 Fab, 100 μM peptide) is reported as “so high that it could not be accurately measured” and the “binding … in SPR, in words” value [3] is reported as “high binding affinity in the nanomolar range”.

For “TYS7: partially sulfated CCR5 N-terminal peptide containing 7Tys (PIYDIN[sY]YTSE; UniProt P51681 8-18, looked up, fragment)”, the “effect of the peptide” value [2] was “contribute to the stabilization of BA8; also recorded: lower than those of TYS3,7,8”, the Kd [4] was 13.4 nM and the ΔH [4] was -14.9 kcal/mol. For the same molecule, the ΔG ([4]; 10 μM BA8 Fab, 100 μM peptide) was -10.7 kcal/mol, the “−TΔS” value ([4]; 10 μM BA8 Fab, 100 μM peptide) was 4.21 kcal/mol and the kon [3] was 228000 mol/L/s. The Kd [3] was 67.8 nM, the koff [3] was 0.0154 s⁻¹ and the “binding … in SPR, in words” value [3] was “bound; also recorded: weak binding”.

In the case of “TYS3: partially sulfated CCR5 N-terminal peptide containing 3Tys (PI[sY]DINYYTSE; UniProt P51681 8-18, looked up, fragment)”, the “effect of the peptide” value [2] is reported as “did not change the thermal stability of BA8 at all” and the “binding … in SPR, in words” value [3] is reported as “no binding; also recorded: did not exhibit binding”.

“TYS3,7: partially sulfated CCR5 N-terminal peptide containing 3Tys and 7Tys (PI[sY]DIN[sY]YTSE; UniProt P51681 8-18, looked up, fragment)” was tested, and the “effect of the peptide” value [2] was “lower than those of TYS3,7,8”, the “effect of the peptide” value ([2]; listed as TYS37) was “contribute to the stabilization of BA8” and the Kd [4] was 7.65 nM. The ΔH [4] was -15.8 kcal/mol, the ΔG ([4]; 10 μM BA8 Fab, 100 μM peptide) was -11.1 kcal/mol and the “−TΔS” value ([4]; 10 μM BA8 Fab, 100 μM peptide) was 4.68 kcal/mol. It also gave a kon [3] of 265000 mol/L/s, a Kd [3] of 45 nM and a koff [3] of 0.0119 s⁻¹. For the same molecule, the “binding … in SPR, in words” value [3] was “weak binding” and the “binding … in SPR, in words” value ([3]; listed as TYS37) was “bound”.

B1: BA8 full-length IgG (recombinant, rabbit IgG Fc) (antibody, V domains shown)
VH: QSLEESGGGLFKPTDTLTLTCTVSGFSLSSYSIRWVRQAPGNGLEWIGAIGSGGNAYYTSWAKSRSTITRNTNENTVTLKMTSLTVADTATYFCARGGINFGIWGPGTLVTVSS
VL: AAVLTQTPSPVSAAVGSTVTINCQSSQSVYSKNWLSWFQQKPGQPPKQLIYSASTLDSGVPSRFSGSGSGTQFTLTISGVQCDDAATYYCQGTYGDASAFGGGTEVVVK
B1 gave an EC50 [5] of 3.71 nM, an EC50 [6] of 3.64 nM and an EC50 [7] of 49 nM.
